We go through 50 molecules from US8686143B2, “Compounds useful as inhibitors of Janus kinases” (Vertex Pharmaceuticals Incorporated, priority 2007, dated 2014).

The target of the first assay is T1, JAK3 (Homo sapiens, UniProt P52333).
T1 sequence (P52333 1-1124): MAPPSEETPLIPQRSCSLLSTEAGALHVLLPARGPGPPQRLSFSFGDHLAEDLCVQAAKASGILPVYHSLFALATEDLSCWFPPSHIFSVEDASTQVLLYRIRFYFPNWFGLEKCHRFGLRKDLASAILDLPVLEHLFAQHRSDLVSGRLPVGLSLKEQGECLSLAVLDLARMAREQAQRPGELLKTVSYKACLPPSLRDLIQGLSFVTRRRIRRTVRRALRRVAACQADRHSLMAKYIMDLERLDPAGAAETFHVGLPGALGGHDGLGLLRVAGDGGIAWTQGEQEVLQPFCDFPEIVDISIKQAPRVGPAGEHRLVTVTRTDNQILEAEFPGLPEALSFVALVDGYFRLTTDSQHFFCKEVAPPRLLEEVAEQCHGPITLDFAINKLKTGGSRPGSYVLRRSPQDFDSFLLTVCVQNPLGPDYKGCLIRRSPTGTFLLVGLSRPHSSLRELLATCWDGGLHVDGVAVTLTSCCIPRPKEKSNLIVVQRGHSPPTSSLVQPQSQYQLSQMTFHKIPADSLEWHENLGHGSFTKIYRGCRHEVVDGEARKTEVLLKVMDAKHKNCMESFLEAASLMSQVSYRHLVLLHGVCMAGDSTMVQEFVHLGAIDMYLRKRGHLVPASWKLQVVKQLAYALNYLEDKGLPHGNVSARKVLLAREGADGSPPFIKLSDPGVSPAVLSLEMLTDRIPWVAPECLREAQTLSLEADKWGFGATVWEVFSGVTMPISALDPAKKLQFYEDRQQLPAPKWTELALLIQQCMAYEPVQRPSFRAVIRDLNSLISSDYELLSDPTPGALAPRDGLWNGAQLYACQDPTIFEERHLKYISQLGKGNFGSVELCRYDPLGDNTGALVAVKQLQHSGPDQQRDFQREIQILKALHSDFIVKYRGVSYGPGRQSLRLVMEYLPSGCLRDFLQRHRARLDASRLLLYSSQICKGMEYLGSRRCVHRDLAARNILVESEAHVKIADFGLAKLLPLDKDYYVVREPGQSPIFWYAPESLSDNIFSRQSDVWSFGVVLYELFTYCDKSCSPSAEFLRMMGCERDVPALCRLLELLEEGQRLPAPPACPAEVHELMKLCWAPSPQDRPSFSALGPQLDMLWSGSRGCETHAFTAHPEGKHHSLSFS
Nature of the assay: JAK3 Inhibition Assay (33P incorporation into poly(Glu)4Tyr). The assay is classed as biochemical. As to conditions: 1 nM JAK3, 5 μM ATP, 1 μM poly(Glu)4Tyr, 25° C. On the procedure: Compounds were screened for their ability to inhibit JAK3 using the assay shown below. Reactions were carried out in a kinase buffer containing 100 mM HEPES (pH 7.4), 1 mM DTT, 10 mM MgCl2, 25 mM NaCl, and 0.01% BSA. Substrate concentrations in the assay were 5 μM ATP (200 uCi/μmole ATP) and 1 μM poly(Glu)4Tyr. Reactions were carried out at 25° C. and 1 nM JAK3.
To each well of a 96 well polycarbonate plate was added 1.5 μl of a candidate JAK3 inhibitor along with 50 μlof kinase buffer containing 2 μM poly(Glu)4Tyr and 10 μM ATP. This was then mixed and 50 μl of kinase buffer containing 2 nM JAK3 enzyme was added to start the reaction. After 20 minutes at room temperature (25° C.), the reaction was stopped with 50 μl of 20% trichloroacetic acid (TCA) that also contained 0.4 mM ATP. The entire contents of each well were then transferred to a 96 well glass fiber filter plate using a TomTek Cell Harvester. After washing, 60 μl of scintillation fluid was added and ^33P incorporation detected on a Perkin Elmer TopCount.
By Ki is commonly meant a measure of affinity in units of concentration, obtained from inhibition or displacement. The low end stands for a stronger hold on the target, the high end for a looser hold on the target. `CC(C)(Nc1ccnc(-c2c[nH]c(C(=O)N3CCCC3)c2)n1)C(=O)NCC(F)(F)F` [Compound 101]: the Ki is at most 1 µM.
Take `CC(C)[C@@H](Nc1nc(-c2ccc3nccnc3c2)ncc1F)C(=O)NCC(F)(F)F` [Compound 168]: the inhibition constant (Ki) lay in the range of 1 to 10 µM.
On the same count and under the same terms, then `CC(C)(Nc1ccnc(-c2ccc3nc(N)sc3c2)n1)C(=O)NCC(F)(F)F` [Compound 79], with 1 to 10 µM; and `C[C@H](Nc1nc(-c2ccnc(Cl)c2)ncc1F)C(=O)NCC(F)(F)F` [Compound 2], with 10 to 50 µM.
`O=C(NCC(F)(F)F)[C@H]1CCCN1c1nc(-c2ccc3nccnc3c2)ncc1F` [Compound 165] had a Ki of 10 to 50 µM.
The same measure, in the same setting: the figure for `C[C@@H](Nc1nc(-c2cccnc2)ncc1F)C(=O)NCC(F)(F)F` [Compound 20] is 10 to 50 µM.
Still for that read-out and setting: the figure for `COc1ccc(Nc2nc(N)n(-c3nccc(NC(C)(C)C(=O)NCC(F)(F)F)n3)n2)cc1` [Compound 38] is 1 to 10 µM; for `CC(C)[C@@H](Nc1ccnc(-c2ccc(O)cc2)n1)C(=O)NCC(F)(F)F` [Compound 167] it is 1 to 10 µM.
On the same count and under the same terms, the figure for `O=C(NCC1CC1)c1cc(-c2ncc(F)c(N3CCC[C@@H]3C(=O)NCC(F)(F)F)n2)c[nH]1` [Compound 118] is 10 to 50 µM.
In turn, `CC(=O)Nc1nc2ccc(-c3ncc(F)c(NC(C)(C)C(=O)NCC(F)(F)F)n3)cc2s1` [Compound 64] had a Ki of 1 to 10 µM.
Still for that read-out and setting: the figure for `Nc1cccc(Nc2nc(N)n(-c3ncc(F)c(N4CCCC4C(=O)NCC(F)(F)F)n3)n2)c1` (centres unmarked) [Compound 57] is 1 to 10 µM; for `CC(C)[C@@H](Nc1nc(-c2ccc3nc(N)sc3c2)ncc1F)C(=O)NCC(F)(F)F` [Compound 78] it is 1 to 10 µM.
Same read-out and setting: the figure for `O=C(NCC(F)(F)F)[C@@H]1CCCN1c1nc(-c2cccnc2)ncc1F` [Compound 26] is 1 to 10 µM; for `CC(C)[C@@H](Nc1ccnc(-c2ccc(=O)[nH]c2)n1)C(=O)NCC(F)(F)F` [Compound 85] it is 10 to 50 µM.
The same measure, in the same setting: then `O=C(NCC(F)(F)F)[C@H]1CCCN1c1ccnc(-c2ccc3c(c2)OCO3)n1` [Compound 59], with 1 to 10 µM; and `COc1ccc(Nc2nc(N)n(-c3ncc(F)c(N[C@@H](C(=O)NCC(F)(F)F)C(C)C)n3)n2)cc1` [Compound 43], with 1 to 10 µM; and `CC(=O)Nc1nc2ccc(-c3nccc(NC(C)(C)C(=O)NCC(F)(F)F)n3)cc2s1` [Compound 82], with 1 to 10 µM.
In turn, `CC(=O)Nc1nc2ccc(-c3nccc(N[C@@H](C(=O)NCC(F)(F)F)C(C)C)n3)cc2s1` [Compound 65] had a Ki of 1 to 10 µM.
Still for that read-out and setting: the figure for `C[C@H](Nc1nc(-c2cccnc2N)ncc1F)C(=O)NCC(F)(F)F` [Compound 27] is 1 to 10 µM; for `CCNC(=O)c1cc(-c2ncc(F)c(NC(C)(C)C(=O)NCC(F)(F)F)n2)c[nH]1` [Compound 93] it is 1 to 10 µM; for `CC(C)(Nc1nc(-c2ccc(O)cc2)ncc1F)C(=O)NCC(F)(F)F` [Compound 123] it is at most 1 µM.
The same measure, in the same setting: then `CN(C)C(=O)c1cc(-c2ncc(F)c(N3CCC[C@@H]3C(=O)NCC(F)(F)F)n2)c[nH]1` [Compound 129], with 10 to 50 µM; and `CC(C)(Nc1ccnc(-c2c[nH]c(C(=O)NC3CC3)c2)n1)C(=O)NCC(F)(F)F` [Compound 98], with 1 to 10 µM; and `Nc1ncccc1-c1ncc(F)c(NCC(=O)NCC(F)(F)F)n1` [Compound 29], with at most 1 µM.
Molecule `CC(C)[C@@H](Nc1nc(-c2ccc(O)cc2)ncc1F)C(=O)NCC(F)(F)F` [Compound 142] showed an inhibition constant (Ki) of 10 to 50 µM.
Same read-out and setting: then `CC(C)[C@@H](Nc1ccnc(-c2c[nH]c(C(=O)NCc3ccccc3)c2)n1)C(=O)NCC(F)(F)F` [Compound 110], with 1 to 10 µM; and `Nc1ccc(Nc2nc(N)n(-c3ncc(F)c(N4CCCC4C(=O)NCC(F)(F)F)n3)n2)cc1` (centres unmarked) [Compound 56], with at most 1 µM; and `CC(C)[C@@H](Nc1ccnc(-c2ccc3nccnc3c2)n1)C(=O)NCC(F)(F)F` [Compound 164], with 1 to 10 µM.
Still for that read-out and setting: then `O=C(NCC(F)(F)F)[C@H]1CCCN1c1nc(-c2ccc3c(c2)OCO3)ncc1F` [Compound 88], with 10 to 50 µM; and `CC(C)(Nc1ccnc(-c2ccc(=O)[nH]c2)n1)C(=O)NCC(F)(F)F` [Compound 86], with 1 to 10 µM.

Still in this assay, the particulars now being: at concentrations of 5.0 μM.
With `Nc1nc(NCC2CCCCC2)nn1-c1ncc(F)c(N2CCC[C@@H]2C(=O)NCC(F)(F)F)n1` [Compound 48], the “inhibition of JAK3 at concentrations of 5.0 μM” value is given as “did not inhibit”.

Still in this assay, the particulars now being: at concentrations of 50 μM.
For `COc1ccc(-c2ncc(F)c(N[C@H](C)C(=O)NCC(F)(F)F)n2)cn1` [Compound 18], the “inhibition of JAK3 at concentrations of 50 μM” value (“inhibition of JAK3 … of 50 μM” below) is reported as “did not inhibit”.
Turning to `CC(C)[C@@H](Nc1nc(-c2ccc(=O)[nH]c2)ncc1F)C(=O)NCC(F)(F)F` [Compound 87], the “inhibition of JAK3 … of 50 μM” value is “did not inhibit”.
Still for that read-out and setting: the entry for `CC(C)(Nc1nc(-c2c[nH]c(C(=O)NCc3ccccc3)c2)ncc1F)C(=O)NCC(F)(F)F` [Compound 95] is “did not inhibit”; for `C[C@H](Nc1nc(-c2ccncc2)ncc1F)C(=O)NCC(F)(F)F` [Compound 3] it is “did not inhibit”.
On the same count and under the same terms, the entry for `C[C@H](Nc1nc(-c2c[nH]c(C(=O)O)c2)ncc1F)C(=O)NCC(F)(F)F` [Compound 7] is “did not inhibit”; for `CC(C)NC(=O)c1cc(-c2ncc(F)c(N[C@@H](C(=O)NCC(F)(F)F)C(C)C)n2)c[nH]1` [Compound 105] it is “did not inhibit”.
The same measure, in the same setting: then `O=C(NCC(F)(F)F)[C@H]1CCCN1c1nc(-c2ccc3c(c2)OCCO3)ncc1F` [Compound 153], with “did not inhibit”; and `COc1ccc(-c2ncc(F)c(NCC(=O)NCC(F)(F)F)n2)cn1` [Compound 10], with “did not inhibit”; and `Nc1cc(-c2ncc(F)c(N3CCC[C@@H]3C(=O)NCC(F)(F)F)n2)c[nH]c1=O` [Compound 138], with “did not inhibit”.
With `COc1ccc(-c2nccc(NC(C)(C)C(=O)NCC(F)(F)F)n2)cc1` [Compound 149], the “inhibition of JAK3 … of 50 μM” value was “did not inhibit”.
Still for that read-out and setting: then `O=C(NCC(F)(F)F)[C@@H]1CCCN1c1nc(-c2ccc(F)nc2)ncc1F` [Compound 25], with “did not inhibit”; and `COc1ccc(-c2ncc(F)c(N[C@@H](C(=O)NCC(F)(F)F)C(C)C)n2)cn1` [Compound 81], with “did not inhibit”; and `CC(C)[C@@H](Nc1nc(-c2ccc3c(c2)OCCO3)ncc1F)C(=O)NCC(F)(F)F` [Compound 166], with “did not inhibit”.
Still for that read-out and setting: the entry for `CC(C)NC(=O)c1cc(-c2ncc(F)c(N3CCC[C@@H]3C(=O)NCC(F)(F)F)n2)c[nH]1` [Compound 117] is “did not inhibit”.
Same read-out and setting: then `O=C(CCNc1nc(-c2cccnc2F)ncc1F)NCC(F)(F)F` [Compound 12], with “did not inhibit”; and `CC(C)(Nc1ccnc(-c2c[nH]c(C(=O)O)c2)n1)C(=O)NCC(F)(F)F` [Compound 128], with “did not inhibit”.
With `COc1ccc(-c2ncc(F)c(NC(C)(C)C(=O)NCC(F)(F)F)n2)cc1` [Compound 124], the “inhibition of JAK3 … of 50 μM” value was “did not inhibit”.
Still for that read-out and setting: then `C[C@H](Nc1nc(-c2cccnc2Cl)ncc1F)C(=O)NCC(F)(F)F` [Compound 5], with “did not inhibit”; and `O=C(CNc1nc(-c2ccc(F)nc2)ncc1F)NCC(F)(F)F` [Compound 9], with “did not inhibit”.
